Reference: article PMC4987127 (Leukemia, 2015)

Columns and labels:
PLCγ = assay: BTK signaling in AML cell lines: downstream mediators; assay type: cell-based; conditions: for effect on PLCγ phosphorylation: direct downstream target of BTK
AKT and ERK = assay: Phosphorylation of AKT and ERK in AML cell lines; assay type: cell-based
[1] = tested on: FLT3-mediated signaling pathways; assay: FLT3-mediated signaling pathways in FLT3-ITD positive cell lines; assay type: cell-based
BTK kinase = BTK kinase (Homo sapiens, UniProt Q06187); assay: BTK signaling in AML cell lines: BTK phosphorylation; assay type: cell-based; conditions: FLT3 wt and FLT3-ITD cell lines
PDGFRα Ba/F3 cells = assay: Oncogene-expressing Ba/F3 cell growth; assay type: cell-based
FLT3-D835H-BaF3 = assay: Isogenic BaF3 cell proliferation; assay type: cell-based; conditions: Mus musculus
[2] = tested on: BTK-KD MOLM14 and MOLM13 cells; conditions: BTK knockdown MOLM14 and MOLM13
FLT3-D835Y-BaF3 = assay: Isogenic BaF3 cell proliferation; assay type: cell-based; conditions: Mus musculus
THP-1 = THP-1 ref 11; cited from earlier work
BCR-ABL Ba/F3 cells = assay: Oncogene-expressing Ba/F3 cell growth; assay type: cell-based
TEL-FLT3-wt-BaF3 = assay: Isogenic BaF3 cell proliferation; assay type: cell-based; conditions: Mus musculus
ITD-D835Y = assay: Isogenic BaF3 cell proliferation; assay type: cell-based
[3] = tested on: FLT3-ITD mutant-expressing primary patient cells; assay: Anti-proliferation on primary patient cells; assay type: cell-based
HL60 = HL60 ref 11; cited from earlier work
[4] = tested on: FLT3-ITD mutant AML cell lines (MOLM13, MOLM14 and MV4-11); assay: Proliferation screen of a panel of AML cell lines; assay type: cell-based; conditions: panel of AML cell lines spanning M0–M7; only FLT3-ITD mutant lines MOLM13, MOLM14, MV4-11
[5] = tested on: FLT3-ITD-dependent isogenic BaF3 cell line; assay: Isogenic BaF3 cell proliferation; assay type: cell-based
c-Kit Ba/F3 cells = assay: Oncogene-expressing Ba/F3 cell growth; assay type: cell-based
FLT3-ITD cell lines = assay: Apoptotic cell death; assay type: cell-based; conditions: concentration- and time-dependent
NRAS Ba/F3 cells = assay: Oncogene-expressing Ba/F3 cell growth; assay type: cell-based
ITD-F691L = assay: Isogenic BaF3 cell proliferation; assay type: cell-based
TF-1 = TF-1 ref 11; cited from earlier work
FLT3 kinase = FLT3 kinase (Homo sapiens, UniProt P36888); assay: Binding mode examination; conditions: molecular modeling, confirmed by washing-out experiment
FLT3-K663Q = assay: Isogenic BaF3 cell proliferation; assay type: cell-based
U937 cells = U937 cells ref 11; cited from earlier work
[6] = tested on: OCI-AML3 and NOMO-1 cells; assay: FLT3-mediated signaling in FLT3 low expression cell lines; assay type: cell-based

Sequence of BTK kinase (Q06187 whole entry): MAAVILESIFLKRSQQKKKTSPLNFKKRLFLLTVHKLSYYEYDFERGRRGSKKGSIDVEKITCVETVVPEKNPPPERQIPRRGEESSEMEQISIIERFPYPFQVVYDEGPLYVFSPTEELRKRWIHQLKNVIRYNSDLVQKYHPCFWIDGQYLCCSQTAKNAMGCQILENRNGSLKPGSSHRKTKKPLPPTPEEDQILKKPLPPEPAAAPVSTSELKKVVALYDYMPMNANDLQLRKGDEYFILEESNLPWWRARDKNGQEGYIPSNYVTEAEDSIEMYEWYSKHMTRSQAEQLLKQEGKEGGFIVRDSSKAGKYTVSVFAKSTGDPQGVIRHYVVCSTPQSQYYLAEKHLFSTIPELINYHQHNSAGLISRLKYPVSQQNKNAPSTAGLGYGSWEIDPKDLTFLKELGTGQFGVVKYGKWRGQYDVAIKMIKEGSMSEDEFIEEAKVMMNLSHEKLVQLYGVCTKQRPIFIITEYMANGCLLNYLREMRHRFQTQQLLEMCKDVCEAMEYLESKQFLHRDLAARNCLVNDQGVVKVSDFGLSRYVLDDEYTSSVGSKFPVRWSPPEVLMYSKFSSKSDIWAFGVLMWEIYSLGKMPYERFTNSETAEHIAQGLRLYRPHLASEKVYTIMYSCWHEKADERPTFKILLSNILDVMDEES
Sequence of FLT3 kinase (P36888 27-993): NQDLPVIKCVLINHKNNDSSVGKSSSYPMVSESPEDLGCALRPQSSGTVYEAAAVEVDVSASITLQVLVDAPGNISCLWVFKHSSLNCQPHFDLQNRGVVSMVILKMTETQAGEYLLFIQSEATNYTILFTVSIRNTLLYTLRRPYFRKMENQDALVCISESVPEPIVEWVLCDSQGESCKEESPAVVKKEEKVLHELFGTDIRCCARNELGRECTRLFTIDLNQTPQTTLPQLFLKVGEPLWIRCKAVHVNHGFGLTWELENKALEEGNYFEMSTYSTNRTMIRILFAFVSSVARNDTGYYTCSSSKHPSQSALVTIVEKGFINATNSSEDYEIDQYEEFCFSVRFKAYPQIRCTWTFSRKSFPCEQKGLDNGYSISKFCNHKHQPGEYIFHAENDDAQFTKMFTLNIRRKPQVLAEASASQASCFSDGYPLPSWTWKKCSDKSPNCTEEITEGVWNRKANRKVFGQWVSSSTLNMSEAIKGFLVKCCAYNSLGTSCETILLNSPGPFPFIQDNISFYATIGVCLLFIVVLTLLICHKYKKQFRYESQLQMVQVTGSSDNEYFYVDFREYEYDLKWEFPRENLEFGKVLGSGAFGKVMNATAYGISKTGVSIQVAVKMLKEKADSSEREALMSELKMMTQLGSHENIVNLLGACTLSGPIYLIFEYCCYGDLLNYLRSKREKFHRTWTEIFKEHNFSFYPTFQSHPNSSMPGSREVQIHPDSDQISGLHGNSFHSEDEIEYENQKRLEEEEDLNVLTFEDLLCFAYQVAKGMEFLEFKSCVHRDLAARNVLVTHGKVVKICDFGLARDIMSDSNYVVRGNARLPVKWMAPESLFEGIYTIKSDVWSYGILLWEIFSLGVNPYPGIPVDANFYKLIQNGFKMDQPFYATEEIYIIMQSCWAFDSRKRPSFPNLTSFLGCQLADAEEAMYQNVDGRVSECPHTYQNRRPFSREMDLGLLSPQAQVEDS

Compound: Cc1c(NC(=O)c2ccc(C(C)(C)C)cc2)cccc1-c1cn(C)c(=O)c(Nc2ccc(C(=O)N3CCOCC3)cc2)n1 [CGI-1746]
- effect on PLCγ phosphorylation (PLCγ): effective
- effect on phosphorylation of AKT and ERK (AKT and ERK): no effect
- effect on FLT3-mediated signaling [1]: did not exhibit any effect

Compound: CC(C)(C)c1cc(NC(=O)Nc2ccc(-c3cn4c(n3)sc3cc(OCCN5CCOCC5)ccc34)cc2)no1 [AC220]
- effect on PLCγ phosphorylation (PLCγ): did not affect
- effect on phosphorylation of AKT and ERK (AKT and ERK): inhibited
- effect on BTK kinase phosphorylation/activity (BTK kinase): did not affect

Compound: C=CC(=O)Nc1cccc(Nc2nc(Nc3ccc(OCCOC)cc3)ncc2F)c1 [AVL-292]
- effect on PLCγ phosphorylation (PLCγ): effective
- effect on phosphorylation of AKT and ERK (AKT and ERK): no effect
- effect on BTK kinase phosphorylation/activity (BTK kinase): effective
- effect on FLT3-mediated signaling [1]: did not exhibit any effect

Compound: C=CC(=O)N1CCC[C@@H](n2nc(-c3ccc(Oc4ccccc4)cc3)c3c(N)ncnc32)C1 [ibrutinib, Ibrutinib]
- effect on growth (PDGFRα Ba/F3 cells): did not affect the growth
- effect on downstream mediators of BTK kinase (PLCγ; only in FLT3 wt-expressing cell lines (NOMO-1 and OCI-AML3)): affected
- GI50 (FLT3-D835H-BaF3): 0.063 µM
- growth of BTK-KD cells [2]: significantly blocked the growth
- GI50 (FLT3-D835Y-BaF3): 0.5 µM
- activity against AML cell line (THP-1): no apparent activity
- effect on growth (BCR-ABL Ba/F3 cells): did not affect the growth
- GI50 (TEL-FLT3-wt-BaF3): 0.46 µM
- activity against mutation (ITD-D835Y): less active
- anti-proliferation activity [3]: dose-dependent anti-proliferation activity
- activity against AML cell line (HL60): no apparent activity
- sensitivity to ibrutinib (proliferation) [4]: sensitive
- rescue of inhibitory effect by IL-3 treatment ([5]; FLT3-ITD BaF3 with IL-3): completely rescued
- GI50 ([5]; Mus musculus, BaF3): 0.12 µM
- effect on growth (c-Kit Ba/F3 cells): did not affect the growth
- apoptotic cell death (FLT3-ITD cell lines): induced apoptotic cell death
- effect on growth (NRAS Ba/F3 cells): did not affect the growth
- activity against mutation (ITD-F691L): less active
- activity against AML cell line (TF-1): no apparent activity
- mode of inhibition of FLT3 kinase (FLT3 kinase): reversible binding
- activity against mutation (FLT3-K663Q): less active
- inhibition of proliferation (U937 cells): moderate inhibition of proliferation
- effect on FLT3-related signaling [6]: not affected
